The values that follow are results of earlier work, collected in patent US20020122835A1, “Compositions for enhancing muscle tissue recovery and repair” (priority 2001, published 2002).

For data set [1] the following is noted: oral administration, human volunteers; Kobayashi et al 1998.

For `CCNC(=O)CC[C@H](N)C(=O)O` [L-theanine], the “safety in animal experiments” value is recorded as “safe”. The feeling of relaxation entry in data set [1] was “caused a feeling of relaxation”.
